Measurements from patent US11701333B2, “Antibacterial compounds” (KENT INNOVATION & ENTERPRISE, priority 2017, dated 2023).
In brackets after ≈: the same amount, converted by molar mass.

tested on: E. coli; assay: growth rate (growth curve) activity screening; assay type: cell-based; conditions: first E. coli growth column, phase not given
From the text: (§1) The ability of each of the compounds of the invention to impact bacterial growth and viability has been tested. This has been undertaken using a novel drop-test method for initial activity screening, as well as using conventional growth curve analysis methodology. This novel class of antimicrobial agent has shown bactericidal activity against Gram +ve (e.g. S. aureus, Bacillus megaterium) and bacteriostatic activity against Gram −ve isolates (e.g. E. coli).
(§2) The compounds were screened initially by drop testing methods and then by growth rate methods as it was identified that drop testing methods could give false negatives.

SMILES	Grow Rates activity E. coli
O=C(NCS(=O)(=O)O)Nc1ccc(C(F)(F)F)cc1 [Compound 1]	Y
O=S(=O)(O)CNC(=S)Nc1ccc(C(F)(F)F)cc1 [Compound 2]	Y
O=C(NCS(=O)(=O)O)Nc1ccc(C(F)(F)F)cc1 [Compound 34]	Y
O=C(NCS(=O)(=O)O)Nc1ccc([N+](=O)[O-])cc1 [Compound 38]	Y
O=S(=O)(O)CNC(=S)Nc1cc(C(F)(F)F)cc(C(F)(F)F)c1 [Compound 43]	Y
O=C(NCS(=O)(=O)O)Nc1ccc2cc3ccccc3cc2c1 [Compound 52]	Y
Cc1ccc2sc(-c3ccc(NC(=O)NCS(=O)(=O)O)cc3)nc2c1 [Compound 53]	Y

tested on: S. aureus; assay: growth rate (growth curve) activity screening; assay type: cell-based; conditions: S. aureus, phase not given
From the text: as §1, §2

SMILES	Grow Rates activity S. aureus
O=C(NCS(=O)(=O)O)Nc1ccc(C(F)(F)F)cc1 [Compound 1]	Y
O=C(NCS(=O)(=O)O)Nc1nc2ccccc2s1 [Compound 71]	N
Cc1ccc2nc(NC(=O)NCS(=O)(=O)O)sc2c1 [Compound 72]	Y

same assay, conditions: log phase bacterial growth

SMILES	Grow Rates activity S. aureus Log
O=C(NCS(=O)(=O)O)Nc1ccc(C(F)(F)F)cc1 [Compound 1]	Y
O=S(=O)(O)CNC(=S)Nc1ccc(C(F)(F)F)cc1 [Compound 2]	Y
O=C(NCS(=O)(=O)O)Nc1ccc(C(F)(F)F)cc1 [Compound 31]	Y
O=C(NCS(=O)(=O)O)Nc1ccc(C(F)(F)F)cc1 [Compound 32]	Y
O=C(NCS(=O)(=O)O)Nc1ccc(C(F)(F)F)cc1 [Compound 33]	Y
O=C(NCS(=O)(=O)O)Nc1ccc(C(F)(F)F)cc1 [Compound 34]	Y
O=C(NCS(=O)(=O)O)Nc1ccc(C(F)(F)F)cc1 [Compound 37]	Y
O=C(NCS(=O)(=O)O)Nc1ccc([N+](=O)[O-])cc1 [Compound 38]	Y
O=S(=O)(O)CNC(=S)Nc1cc(C(F)(F)F)cc(C(F)(F)F)c1 [Compound 43]	Y
O=C(NCS(=O)(=O)O)Nc1ccc2cc3ccccc3cc2c1 [Compound 52]	Y
Cc1ccc2sc(-c3ccc(NC(=O)NCS(=O)(=O)O)cc3)nc2c1 [Compound 53]	Y
O=S(=O)(O)CNC(=S)Nc1ccc(C(F)(F)F)cc1 [Compound 61]	Y
O=S(=O)(O)CNC(=S)Nc1ccc(C(F)(F)F)cc1 [Compound 62]	Y
O=C(NCS(=O)(=O)O)Nc1ccc(Cc2ccc(NC(=O)NCS(=O)(=O)O)cc2)cc1 [Compound 68]	Y
O=C(NCS(=O)(=O)O)Nc1nc2ccccc2s1 [Compound 71]	Y
Cc1ccc2nc(NC(=O)NCS(=O)(=O)O)sc2c1 [Compound 72]	N
Nc1ccc(NC(=O)NCS(=O)(=O)O)cc1 [Compound 74]	Y

tested on: E. coli; assay: drop test activity screening; assay type: cell-based; conditions: not given; note: key: Y = antibacterial activity; N = No antibacterial activity
From the text: as §1, §2

SMILES	drop test activity E. coli
O=C(NCS(=O)(=O)O)Nc1ccc(C(F)(F)F)cc1 [Compound 1]	N
O=S(=O)(O)CNC(=S)Nc1ccc(C(F)(F)F)cc1 [Compound 2]	N
O=C(NCCS(=O)(=O)O)Nc1ccc(C(F)(F)F)cc1 [Compound 3]	N
O=C(NCS(=O)(=O)O)Nc1ccc(C(F)(F)F)cc1 [Compound 31]	N
O=C(NCS(=O)(=O)O)Nc1ccc(C(F)(F)F)cc1 [Compound 32]	N
O=C(NCS(=O)(=O)O)Nc1ccc(C(F)(F)F)cc1 [Compound 33]	N
O=C(NCS(=O)(=O)O)Nc1ccc(C(F)(F)F)cc1 [Compound 34]	N
O=C(NCS(=O)(=O)O)Nc1ccc(C(F)(F)F)cc1 [Compound 37]	N
O=C(NCS(=O)(=O)O)Nc1ccc([N+](=O)[O-])cc1 [Compound 38]	N
O=S(=O)(O)CNC(=S)Nc1cc(C(F)(F)F)cc(C(F)(F)F)c1 [Compound 43]	N
O=C(NCS(=O)(=O)O)Nc1ccc2cc3ccccc3cc2c1 [Compound 52]	N
Cc1ccc2sc(-c3ccc(NC(=O)NCS(=O)(=O)O)cc3)nc2c1 [Compound 53]	N
O=S(=O)(O)CNC(=S)Nc1ccc(C(F)(F)F)cc1 [Compound 61]	N
O=S(=O)(O)CNC(=S)Nc1ccc(C(F)(F)F)cc1 [Compound 62]	N
O=C(NCS(=O)(=O)O)Nc1ccc(Cc2ccc(NC(=O)NCS(=O)(=O)O)cc2)cc1 [Compound 68]	N
O=C(NCS(=O)(=O)O)Nc1nc2ccccc2s1 [Compound 71]	N
Cc1ccc2nc(NC(=O)NCS(=O)(=O)O)sc2c1 [Compound 72]	N
Nc1ccc(NC(=O)NCS(=O)(=O)O)cc1 [Compound 74]	N

tested on: S. aureus; assay: drop test activity screening; assay type: cell-based; conditions: not given; note: key: Y = antibacterial activity; N = No antibacterial activity
From the text: as §1, §2

SMILES	drop test activity S. aureus
O=C(NCS(=O)(=O)O)Nc1ccc(C(F)(F)F)cc1 [Compound 1]	Y
O=S(=O)(O)CNC(=S)Nc1ccc(C(F)(F)F)cc1 [Compound 2]	Y
O=C(NCCS(=O)(=O)O)Nc1ccc(C(F)(F)F)cc1 [Compound 3]	N
O=C(NCS(=O)(=O)O)Nc1ccc(C(F)(F)F)cc1 [Compound 31]	Y
O=C(NCS(=O)(=O)O)Nc1ccc(C(F)(F)F)cc1 [Compound 32]	Y
O=C(NCS(=O)(=O)O)Nc1ccc(C(F)(F)F)cc1 [Compound 33]	Y
O=C(NCS(=O)(=O)O)Nc1ccc(C(F)(F)F)cc1 [Compound 34]	Y
O=C(NCS(=O)(=O)O)Nc1ccc(C(F)(F)F)cc1 [Compound 37]	Y
O=C(NCS(=O)(=O)O)Nc1ccc([N+](=O)[O-])cc1 [Compound 38]	Y
O=S(=O)(O)CNC(=S)Nc1cc(C(F)(F)F)cc(C(F)(F)F)c1 [Compound 43]	Y
O=C(NCS(=O)(=O)O)Nc1ccc2cc3ccccc3cc2c1 [Compound 52]	N
Cc1ccc2sc(-c3ccc(NC(=O)NCS(=O)(=O)O)cc3)nc2c1 [Compound 53]	Y
O=S(=O)(O)CNC(=S)Nc1ccc(C(F)(F)F)cc1 [Compound 61]	N
O=S(=O)(O)CNC(=S)Nc1ccc(C(F)(F)F)cc1 [Compound 62]	N
O=C(NCS(=O)(=O)O)Nc1ccc(Cc2ccc(NC(=O)NCS(=O)(=O)O)cc2)cc1 [Compound 68]	Y
O=C(NCS(=O)(=O)O)Nc1nc2ccccc2s1 [Compound 71]	N
Cc1ccc2nc(NC(=O)NCS(=O)(=O)O)sc2c1 [Compound 72]	N
Nc1ccc(NC(=O)NCS(=O)(=O)O)cc1 [Compound 74]	N

tested on: E. coli; assay: Calculated MIC50 and MIC100 values; assay type: cell-based; conditions: Escherichia coli, stationary phase; read-out: MIC50 Coli Stat
From the text: (§3) The present inventors have determined MIC50 values, in the nM-μM range, for lead compounds, against clinical S. aureus isolates (e.g. MRSA) and E. coli in both log and stationary phases.

SMILES	MIC50 [µg/mL]
O=C(NCS(=O)(=O)O)Nc1ccc(C(F)(F)F)cc1 [Compound 37]	451 (≈ 1510 µM)

same assay, conditions: Escherichia coli, stationary phase; read-out: MIC100 Coli Stat

SMILES	MIC [µg/mL]
O=C(NCS(=O)(=O)O)Nc1ccc(C(F)(F)F)cc1 [Compound 37]	480 (≈ 1610 µM)

same assay, conditions: log phase

SMILES	MIC50 Coli Log [μg/mL]	MIC100 Coli Log [μg/mL]
O=C(NCS(=O)(=O)O)Nc1ccc(C(F)(F)F)cc1 [Compound 37]	236.9979	505.6726

same assay, conditions: stationary phase

SMILES	MIC50 Coli Stat [µg/mL]	MIC100 Coli Stat [µg/mL]
O=C(NCS(=O)(=O)O)Nc1ccc(C(F)(F)F)cc1 [Compound 1]	412.0789 (≈ 1380 µM)	421.0559 (≈ 1410 µM)

tested on: S. aureus; assay: Calculated MIC50 and MIC100 values; assay type: cell-based; conditions: log phase
From the text: as §3

SMILES	MIC50 Staph Log [μg/mL]	MIC100 Staph Log [μg/mL]
O=C(NCS(=O)(=O)O)Nc1ccc(C(F)(F)F)cc1 [Compound 1]	7.35	29.41
O=S(=O)(O)CNC(=S)Nc1ccc(C(F)(F)F)cc1 [Compound 2]	54.13	93.55
O=C(NCS(=O)(=O)O)Nc1ccc(C(F)(F)F)cc1 [Compound 31]	21.6	22.68
O=C(NCS(=O)(=O)O)Nc1ccc(C(F)(F)F)cc1 [Compound 32]	19.14	20.08
O=C(NCS(=O)(=O)O)Nc1ccc(C(F)(F)F)cc1 [Compound 33]	0.45	2.971
O=C(NCS(=O)(=O)O)Nc1ccc(C(F)(F)F)cc1 [Compound 34]	146.6192	
O=C(NCS(=O)(=O)O)Nc1ccc(C(F)(F)F)cc1 [Compound 37]	29.08	30.35
O=C(NCS(=O)(=O)O)Nc1ccc2cc3ccccc3cc2c1 [Compound 52]	330.0044	
Cc1ccc2sc(-c3ccc(NC(=O)NCS(=O)(=O)O)cc3)nc2c1 [Compound 53]	21.11	
O=C(NCS(=O)(=O)O)Nc1ccc(Cc2ccc(NC(=O)NCS(=O)(=O)O)cc2)cc1 [Compound 68]	370.0761	

same assay, conditions: stationary phase

SMILES	MIC50 Staph Stat [µg/mL]	MIC100 Staph Stat [µg/mL]
O=C(NCS(=O)(=O)O)Nc1ccc(C(F)(F)F)cc1 [Compound 1]	209.132 (≈ 701 µM)	254.5639 (≈ 854 µM)
O=C(NCS(=O)(=O)O)Nc1ccc(C(F)(F)F)cc1 [Compound 31]	14.79 (≈ 49.6 µM)	14.84 (≈ 49.8 µM)
O=C(NCS(=O)(=O)O)Nc1ccc(C(F)(F)F)cc1 [Compound 32]	39.4 (≈ 132 µM)	57 (≈ 191 µM)
O=C(NCS(=O)(=O)O)Nc1ccc(C(F)(F)F)cc1 [Compound 33]	5.579 (≈ 18.7 µM)	7.304 (≈ 24.5 µM)
O=C(NCS(=O)(=O)O)Nc1ccc(C(F)(F)F)cc1 [Compound 37]	464.1399 (≈ 1560 µM)	559.1301 (≈ 1870 µM)
